According to patent publication US20030170702A1, “Methods for polysome distribution analysis of mRNA's” (priority 2002, published 2003):

What was measured:
Taq polymerase = molecular target: T1, Taq polymerase (Thermus aquaticus, UniProt P19821); test: Inhibition of PCR by heparin and sucrose, SYBR Green quantitation of amplicon; format: biochemical; details: for concentration that inhibits PCR efficiency: final concentration in PCR reaction, 35 cycles
T1 construct: purchased Applied Biosystems Inc
T1 sequence (P19821 whole entry): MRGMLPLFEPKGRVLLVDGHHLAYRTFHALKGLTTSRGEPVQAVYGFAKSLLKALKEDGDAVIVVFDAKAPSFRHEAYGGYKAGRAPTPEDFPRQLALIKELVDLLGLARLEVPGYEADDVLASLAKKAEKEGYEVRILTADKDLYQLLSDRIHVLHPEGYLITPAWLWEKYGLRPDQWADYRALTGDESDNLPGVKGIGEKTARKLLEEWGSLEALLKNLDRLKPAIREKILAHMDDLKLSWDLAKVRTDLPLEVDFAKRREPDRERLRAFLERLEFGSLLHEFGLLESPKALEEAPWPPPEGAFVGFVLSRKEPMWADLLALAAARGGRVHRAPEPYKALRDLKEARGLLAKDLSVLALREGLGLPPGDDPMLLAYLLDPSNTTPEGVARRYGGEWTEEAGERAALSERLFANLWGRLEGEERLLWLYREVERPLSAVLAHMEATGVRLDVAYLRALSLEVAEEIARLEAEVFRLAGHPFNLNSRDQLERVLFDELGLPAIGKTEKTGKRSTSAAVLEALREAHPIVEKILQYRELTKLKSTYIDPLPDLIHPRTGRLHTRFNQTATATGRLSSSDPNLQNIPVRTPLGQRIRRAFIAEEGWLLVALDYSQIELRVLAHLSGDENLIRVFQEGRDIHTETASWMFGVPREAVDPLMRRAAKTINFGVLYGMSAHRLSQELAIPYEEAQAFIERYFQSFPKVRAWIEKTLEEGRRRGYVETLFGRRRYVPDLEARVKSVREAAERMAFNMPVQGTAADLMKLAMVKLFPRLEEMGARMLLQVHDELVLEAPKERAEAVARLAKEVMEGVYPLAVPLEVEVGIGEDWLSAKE
Protocol: (§1) We discovered that heparin and sucrose inhibit reverse transcription (RT) and polymerase chain reaction (PCR). To determine the level of heparin or sucrose that inhibits these reactions, RT and PCR reactions were performed at varying heparin and sucrose concentrations. Each reaction mixture contained 25 μL 2× SYBR Green PCR Master Mix (Applied Biosystems Inc), 0.25 μL MultiScribe Reverse Transcriptase at 50U/μl (ABI), 0.4 μL RNase Inhibitor at 20U/μl (ABI), 25 nM forward primer, 25 nM reverse primer, 10 μl RNA template, and enough water to bring the final reaction volume to 50 μl. For the RT reactions, E coli RNase P RNA was used as the RNA template, and 1.25 μl of each primer from a stock solution of 1 μM was used, giving a final primer concentration of 25 nM. The RNase P primers were RNASEP-F19 (5′-[…]-3′, SEQ ID NO: 1) and RNASEP-R278 (5′-[…]-3′, SEQ ID NO: 2). All primers were purchased from Integrated DNA Technologies, Inc. The 2× SYBR Green Master Mix contains Taq polymerase, nucleotides, buffer, and magnesium. These reaction mixtures were assembled in a Micro Amp Optical 96 well reaction plate (ABI).
PCR reactions were also performed in the presence of varying amounts of heparin and sucrose. The plasmid pJA2′, which contains the DNA copy of the E coli RNase P RNA, was used as the template in these PCR reactions to generate both experimental and standard curves. Thirty-five cycles of PCR were performed in which the reaction mixture was incubated at 95° C. for 15 seconds for denaturation and 60° C. for one minute for annealing and extension. The reaction mixtures in the 96 well plate were loaded in the Gene Amp 5700 Sequence Detection System (ABI). This machine quantitates the amount of PCR product made after each cycle. A standard curve is generated with each reaction and used to calculate the quantity of the PCR product or amplicon for each experimental reaction. For the “Raw Activity” column in Table 2 the units are ng of DNA.

[1] = molecular target: T2, MultiScribe Reverse Transcriptase (Moloney murine leukemia virus, UniProt P03355); test: Inhibition of reverse transcription (RT) by heparin and sucrose, 32P-labeled primer extension; format: biochemical
T2 construct: MultiScribe Reverse Transcriptase; purchased ABI (Applied Biosystems Inc)
Protocol: as §1
To examine the reverse transcription efficiency in the presence of sucrose and heparin, the reverse primer specific for RNase P RNA was ^32P labeled, and used as the only source of reverse primer. The radiolabeled primer was extended using reverse transcription during an incubation at 48° C. for 30 minutes. The resultant DNA was isolated and separated on a 6% denaturing gel. After soaking and drying the gel, the ^32P labeled reverse transcription product was quantitated using the Cyclone Storage Phosphor System (Packard) and Optiquant Image Analysis Software (Packard). This software reports the intensity of a selected band on the gel in units called Digital Light Units (DLU). The number of DLUs is listed in the “Raw Activity” column in Table 1. The amounts of sucrose and heparin in the samples as well as the final concentration of sucrose (percent weight per volume, % w/v) and heparin in the RT reaction are also listed. The highest amount represents 30% sucrose (average of the amount in a typical sucrose gradient) and 1 mg/mL heparin (amount of heparin in a typical sucrose gradient fraction). The amount of reverse transcription activity (“% RT” column) is expressed as a percent of the activity in the presence of differing amounts of sucrose or heparin relative to the activity in the absence of these substances.

[2] = sucrose 0.001 % w/v final in PCR reaction (0.04 % in sample)
[3] = sucrose 0.004 % w/v final in PCR reaction (0.12 % in sample)
[4] = sucrose 0.014 % w/v final in PCR reaction (0.37 % in sample)
[5] = sucrose 0.044 % w/v final in PCR reaction (1.11 % in sample)
[6] = sucrose 0.133 % w/v final in PCR reaction (3.33 % in sample)
[7] = sucrose 0.4 % w/v final in PCR reaction (10 % in sample)
[8] = sucrose 1.2 % w/v final in PCR reaction (30 % in sample)
[9] = sucrose 0.001 % W/V final in RT reaction (0.04 % in sample)
[10] = sucrose 0.004 % W/V final in RT reaction (0.12 % in sample)
[11] = sucrose 0.014 % W/V final in RT reaction (0.37 % in sample)
[12] = sucrose 0.044 % W/V final in RT reaction (1.11 % in sample)
[13] = sucrose 0.133 % W/V final in RT reaction (3.33 % in sample)
[14] = sucrose 0.4 % W/V final in RT reaction (10 % in sample)
[15] = sucrose 1.2 % W/V final in RT reaction (30 % in sample)
[16] = heparin 0.002 ng/μL final in PCR reaction (0.06 in sample)
[17] = heparin 0.012 ng/μL final in PCR reaction (0.32 in sample)
[18] = heparin 0.064 ng/μL final in PCR reaction (1.6 in sample)
[19] = heparin 0.32 ng/μL final in PCR reaction (8 in sample)
[20] = heparin 1.6 ng/μL final in PCR reaction (40 in sample)
[21] = heparin 8 ng/μL final in PCR reaction (200 in sample)
[22] = heparin 40 ng/μL final in PCR reaction (1000 in sample)
[23] = heparin 0.002 ng/μL final in RT reaction (0.06 in sample)
[24] = heparin 0.012 ng/μL final in RT reaction (0.32 in sample)
[25] = heparin 0.064 ng/μL final in RT reaction (1.6 in sample)
[26] = heparin 0.32 ng/μL final in RT reaction (8 in sample)
[27] = heparin 1.6 ng/μL final in RT reaction (40 in sample)
[28] = heparin 8 ng/μL final in RT reaction (200 in sample)
[29] = heparin 40 ng/μL final in RT reaction (1000 in sample)

OC[C@H]1O[C@@](CO)(O[C@H]2O[C@H](CO)[C@@H](O)[C@H](O)[C@H]2O)[C@@H](O)[C@@H]1O [Sucrose, sucrose]
concentration that inhibits PCR efficiency (Taq polymerase): 0.004 % w/v | % PCR (Taq polymerase; [2]): 102% | Raw Activity (quantity of PCR product) (Taq polymerase; [2]): 10.2 ng of DNA | % PCR (Taq polymerase; [3]): 66.6% | Raw Activity (quantity of PCR product) (Taq polymerase; [3]): 6.66 ng of DNA | % PCR (Taq polymerase; [4]): 67% | Raw Activity (quantity of PCR product) (Taq polymerase; [4]): 6.7 ng of DNA | % PCR (Taq polymerase; [5]): 61% | Raw Activity (quantity of PCR product) (Taq polymerase; [5]): 6.1 ng of DNA | % PCR (Taq polymerase; [6]): 65.7% | Raw Activity (quantity of PCR product) (Taq polymerase; [6]): 6.57 ng of DNA | % PCR (Taq polymerase; [7]): 66.7% | Raw Activity (quantity of PCR product) (Taq polymerase; [7]): 6.67 ng of DNA | % PCR (Taq polymerase; [8]): 72.6% | Raw Activity (quantity of PCR product) (Taq polymerase; [8]): 7.26 ng of DNA | % RT (reverse transcription activity relative to activity in absence of substance) [1, 9]: 133.445% | Raw Activity (RT product band intensity) [1, 9]: 7.94 DLU | % RT (reverse transcription activity relative to activity in absence of substance) [1, 10]: 158.487% | Raw Activity (RT product band intensity) [1, 10]: 9.43 DLU | % RT (reverse transcription activity relative to activity in absence of substance) [1, 11]: 171.933% | Raw Activity (RT product band intensity) [1, 11]: 10.23 DLU | % RT (reverse transcription activity relative to activity in absence of substance) [1, 12]: 159.832% | Raw Activity (RT product band intensity) [1, 12]: 9.51 DLU | % RT (reverse transcription activity relative to activity in absence of substance) [1, 13]: 155.798% | Raw Activity (RT product band intensity) [1, 13]: 9.27 DLU | % RT (reverse transcription activity relative to activity in absence of substance) [1, 14]: 119.328% | Raw Activity (RT product band intensity) [1, 14]: 7.1 DLU | % RT (reverse transcription activity relative to activity in absence of substance) [1, 15]: 96.1345% | Raw Activity (RT product band intensity) [1, 15]: 5.72 DLU | effect on the efficiency of reverse transcription ([1]; up to 1.2 % W/V sucrose final, 48° C. for 30 minutes): does not inhibit

heparin
concentration that inhibits PCR efficiency (Taq polymerase): 0.012 ng/µL | % PCR (Taq polymerase; [16]): 107.69% | Raw Activity (quantity of PCR product) (Taq polymerase; [16]): 0.002 11.2 ng of DNA | % PCR (Taq polymerase; [17]): 75.962% | Raw Activity (quantity of PCR product) (Taq polymerase; [17]): 7.9 ng of DNA | % PCR (Taq polymerase; [18]): 29.808% | Raw Activity (quantity of PCR product) (Taq polymerase; [18]): 3.1 ng of DNA | % PCR (Taq polymerase; [19]): 0% | Raw Activity (quantity of PCR product) (Taq polymerase; [19]): 0 ng of DNA | % PCR (Taq polymerase; [20]): 0% | Raw Activity (quantity of PCR product) (Taq polymerase; [20]): 0 ng of DNA | % PCR (Taq polymerase; [21]): 0% | Raw Activity (quantity of PCR product) (Taq polymerase; [21]): 0 ng of DNA | % PCR (Taq polymerase; [22]): 0% | Raw Activity (quantity of PCR product) (Taq polymerase; [22]): 0 ng of DNA | concentration that significantly inhibits reverse transcription efficiency ([1]; final concentration in RT reaction): ≥ 0.32 ng/µL | % RT (reverse transcription activity relative to activity in absence of substance) [1, 23]: 108.01% | Raw Activity (RT product band intensity) [1, 23]: 10.79 DLU | % RT (reverse transcription activity relative to activity in absence of substance) [1, 24]: 101.8% | Raw Activity (RT product band intensity) [1, 24]: 10.17 DLU | % RT (reverse transcription activity relative to activity in absence of substance) [1, 25]: 93.293% | Raw Activity (RT product band intensity) [1, 25]: 9.32 DLU | % RT (reverse transcription activity relative to activity in absence of substance) [1, 26]: 72.573% | Raw Activity (RT product band intensity) [1, 26]: 7.25 DLU | % RT (reverse transcription activity relative to activity in absence of substance) [1, 27]: 3.6036% | Raw Activity (RT product band intensity) [1, 27]: 0.36 DLU | % RT (reverse transcription activity relative to activity in absence of substance) [1, 28]: 0.6006% | Raw Activity (RT product band intensity) [1, 28]: 0.06 DLU | % RT (reverse transcription activity relative to activity in absence of substance) [1, 29]: 0.8008% | Raw Activity (RT product band intensity) [1, 29]: 0.08 DLU
